Reference: US5780441A, “Sphingoglycolipid compounds and therapeutic uses thereof” (Kirin Beer Kabushiki Kaisha, priority 1993, dated 1998)

Assays:
[1] = test system: mouse splenic lymphocyte; assay: In vitro mouse splenic lymphocyte-proliferation-stimulating effect (3H-TdR uptake); type: cell-based, mouse (BDF1 female); conditions: 2 days
Experimental: i) In vitro mouse splenic lymphocyte growth promoting effects of the present compounds
Experiment was performed with BDF1 female mice (6 weeks old) purchased from NIPPON SLC K.K. Spleens were removed from mice, and spleen cells were brayed with slide glasses and hemolized with NH4 Cl. 2×10^6cells/ml of the spleen cells which had been hemolized were suspended in 10% FCS RPMI 1640. The cell suspension (100 μl/well) and a vehicle or sample (10 μl/well) which was prepared so as to have a final level shown in Table 3 were added into wells of a round-bottomed 96 well plate, and cultured under the condition of 5% CO2 at 37° C. for 2 days. 0.5 μCi/well of ^3 H-thymidine (^3 H-TdR) was added. After 6 hours, the cells were harvested, and the amount of ^3 H-TdR uptaken into nucleus was measured by a liquid scintillation counter. The ratio (%) of the uptake of ^3 H-TdR in the sample group to that in the vehicle group was calculated and used as the in vitro mouse splenic lymphocyte-proliferation-stimulating rate.

[2] = test system: B16 mouse melanoma cells; assay: Tumor growth inhibition in mice subcutaneously inoculated with B16 mouse melanoma cells; type: in vivo, mouse (BDF1 female); conditions: 0.1 mg/kg i.v. days 1, 5, 9; maximum during 20 days
Experimental: ii) Anti-tumor effect of the compound according to the present invention on mice subcutaneously inoculated with B16 mouse melanoma cells.
Experiment was performed with BDF1 female mice (6 weeks) purchased from NIPPON SLC K.K., which were divided into groups consisting of 6 animals. […]. The subcutaneous tumor volumes [(length×width×height)/2] were measured on days 8, 12, 16 and 20 after implantation to determine the tumor growth inhibiting rate (TGIR) of each sample. TGIR was calculated from the following formula: […]
wherein C: tumor volume in the control group, and
T: tumor volume in the sample adminitered groups.
In this connection, Compounds 1-6 and 7-9 were tested in the same time, respectively.

[3] = test system: mouse bone marrow cells; assay: In vitro mouse bone marrow cell-proliferation-promoting effect (3H-TdR uptake); type: cell-based, mouse (BDF1 female); conditions: 4 days
Experimental: In vitro mouse bone marrow cell-proliferation-promoting effect of the present compound
Experiment was performed with BDF1 female mice (6 weeks old) purchased from NIPPON SLC K.K. Bone marrow cells were removed from the femoral bone of mice by the conventional manner, floated on 10% FCS RPMI 1640, layered over Lympholite M, and centrifuged to give a monocyte fraction. 1×10^6 cells/ml of the monocyte fraction was suspended in 10% FCS RPMI 1640. The cell suspension (100 μl/well) and a vehicle or sample (10 μl/well) which was prepared so as to have a final level shown in Table 2 were added into a wells of round-bottomed 96 well plate, and cultured under the condition of 5% CO2 at 37° C. for 4 days. 0.5 μCi/well of ^3 H-thymidine (^3 H-TdR) was added. After 6 hours, the cells were harvested, and the amount of ^3 H-TdR uptaken into nucleus was measured by a liquid scintillation counter. The ratio of the uptake of ^3 H-TdR in the sample group to that in the vehicle group was calculated and used as the activation rate for promoting in vitro mouse bone marrow cell growth.

[4] = test system: mixed lymphocyte culture reaction (spleen cells of C57BL/6 and BALB/C mice); assay: Mixed lymphocyte culture reaction (MLR); type: cell-based, mouse (C57BL/6 stimulator, BALB/C responder); conditions: 42 hours
Experimental: ii) Mixed lymphocyte culture reaction (MLR) of the compounds of the present invention
Spleen cells were prepared from C57BL/6 mice and treated with 50 μg/ml of mitomycin C for 30 minutes. The treated cells were used as stimulator cells, and the spleen cells of BALB/C mice as responder cells. 2×10^6 cells/ml of the both spleen cells were suspended in 10% FCS RPMI1640 as a culture medium. The above-described cells (50 μl/well) and a sample (10 μl/well) were added into wells of a round-bottomed 96 well plate, and cultured under the condition of 5% CO2 at 37° C. for 42 hours. 0.5 μCi/well of ^3 H-thymidine (^3 H-TdR) was added. After 8 hours, the cells were harvested, and the amount of uptaken ^3 H-TdR was measured by a liquid scintillation counter to calculate the ratio (%) of the uptake of ^3 H-TdR in the sample group to that in the vehicle group as the MLR activating rate.

[5] = test system: lethally irradiated mice; assay: Radioprotective effect: life-span prolongation of lethally irradiated mice; type: in vivo, mouse (BDF1 female); conditions: 0.1 mg/kg i.v. days 0, 4, 8, 9 Gy X-ray, groups of 10
Experimental: Life-span-prolonging effects of the present compounds on lethally irradiated mice.
Experiment was performed with BDF1 female mice (6 weeks old) purchased from NIPPON SLC K.K., which were divided into groups consisting of 10 animals. Mice were irradiated generally with 9 Gy of X-ray with an X-ray generating apparatus, Hitachi, MBR-1520R (radiation day: day 0). Samples at a dose of 0.1 mg/kg were administered into tail vein on days 0, 4 and 8 in order to observe the mortality of the animals for 40 days.
In the table, two experiments are separated by the broken line.

[6] = test system: P388 mouse leukemia cells; assay: Life-span-prolonging (anti-tumor) effect on mice subcutaneously inoculated with P388 mouse leukemia cells; type: in vivo, mouse (CDF1 female); conditions: 0.1 mg/kg i.v. on days 1, 5 and 9; for Survival days ave. ± s. d.: all marked ** (p < 0.01); for T/C (%): survival vs vehicle
Experimental: i) Anti-tumor effect of the compound of the present invention on mice subcutaneously inoculated with P388 mouse leukemia cells.
Experiment was performed with CDF1 female mice (6 weeks) purchased from NIPPON SLC K.K., which were divided into groups consisting of 5 animals. […]. In this connection, lentinan and picibanil were administered intravenously on days 1, 3, 5, 7 and 9 after implantation, and sizofilan was administered subcutaneously on days 1 through 9. Statistical analysis was performed according to the Mann-Whiteney test.

O-(N-acetyl-2-amino-2-deoxy-α-D-galactopyranosyl)-(1→3)-O-[α-D-glucopyranosyl-(1→2)]-O-α-D-galactopyranosyl-(1→1)-(2S,3S,4R)-2-amino-N-[(R)-2-hydroxytetracosanoyl]-16-methyl-1,3,4-octadecanetriol [Compound 9]
Uptake of 3H-TdR (% of control), splenic lymphocytes ([1]; 10^0 μg/ml): 902 % of control
Uptake of 3H-TdR (% of control), splenic lymphocytes ([1]; 10^-1 μg/ml): 924 % of control
Uptake of 3H-TdR (% of control), splenic lymphocytes ([1]; 10^-3 μg/ml): 513 % of control
Maximum tumor growth inhibiting rate, TGIR (%) [2]: 74.8%
Uptake of 3H-TdR (% of control), bone marrow cells ([3]; 10^-1 μg/ml): 286 % of control
Uptake of 3H-TdR (% of control), bone marrow cells ([3]; 10^-2 μg/ml): 91 % of control
MLR activating rate (%) ([4]; 1 × 10^0 μg/ml): 247%
MLR activating rate (%) ([4]; 1 × 10^-1 μg/ml): 205%
Number of surviving mice ([5]; day 10): 10 mice
Number of surviving mice ([5]; day 15): 8 mice
Number of surviving mice ([5]; day 20): 5 mice
Number of surviving mice ([5]; day 25): 3 mice
Number of surviving mice ([5]; day 30): 3 mice
Number of surviving mice ([5]; day 35): 3 mice
Number of surviving mice ([5]; day 40): 3 mice
Survival days ave. ± s. d. [6]: 16.4 ± 1.8 days
T/C (%) [6]: 128%

CCCCCCCCCCCCCCCCCCCCCC[C@@H](O)C(=O)N[C@@H](CO[C@H]1O[C@H](CO)[C@H](O)[C@H](O[C@H]2O[C@H](CO)[C@H](O)[C@H](O)[C@H]2NC(C)=O)[C@H]1O[C@H]1O[C@H](CO)[C@@H](O)[C@H](O)[C@H]1O)[C@H](O)[C@H](O)CCCCCCCCCCCC(C)C [Compound 3, O-(N-acetyl-2-amino-2-deoxy-α-D-galactopyranosyl)-(1→3)-O-[α-D-glucopyranosyl-(1→2)]-O-α-D-galactopyranosyl-(1→1)-(2S,3S,4R)-2-amino-N-[(R)-2-hydroxytetracosanoyl]-16-methyl-1,3,4-heptadecanetriol]
Uptake of 3H-TdR (% of control), splenic lymphocytes ([1]; 10^0 μg/ml, 2880 min): 815 % of control
Uptake of 3H-TdR (% of control), splenic lymphocytes ([1]; 10^-1 μg/ml, 2880 min): 704 % of control
Uptake of 3H-TdR (% of control), splenic lymphocytes ([1]; 10^-2 μg/ml, 2880 min): 397 % of control
Uptake of 3H-TdR (% of control), splenic lymphocytes ([1]; 10^-3 μg/ml, 2880 min): 258 % of control
Maximum tumor growth inhibiting rate, TGIR (%) [2]: 66.8%
Uptake of 3H-TdR (% of control), bone marrow cells ([3]; 10^-1 μg/ml, 5760 min): 314 % of control
Uptake of 3H-TdR (% of control), bone marrow cells ([3]; 10^-2 μg/ml, 5760 min): 138 % of control
MLR activating rate (%) ([4]; 1 × 10^0 μg/ml, 2520 min): 210%
MLR activating rate (%) ([4]; 1 × 10^-1 μg/ml, 2520 min): 138%
Number of surviving mice ([5]; day 10): 10 mice
Number of surviving mice ([5]; day 15, 0.1 mg/kg): 6 mice
Number of surviving mice ([5]; day 20, 0.1 mg/kg): 5 mice
Number of surviving mice ([5]; day 25, 0.1 mg/kg): 5 mice
Number of surviving mice ([5]; day 30, 0.1 mg/kg): 5 mice
Number of surviving mice ([5]; day 35, 0.1 mg/kg): 5 mice
Number of surviving mice ([5]; day 40, 0.1 mg/kg): 5 mice
Survival days ave. ± s. d. [6]: 15.0 ± 0 days
T/C (%) [6]: 117%

CCCCCCCCCCCCCCCCCCCCCC[C@@H](O)C(=O)N[C@@H](CO[C@H]1O[C@H](CO)[C@H](O)[C@H](O[C@H]2O[C@H](CO)[C@H](O)[C@H](O)[C@H]2NC(C)=O)[C@H]1O[C@H]1O[C@H](CO)[C@@H](O)[C@H](O)[C@H]1O)[C@H](O)[C@H](O)CCCCCCCCCCCC(C)C [Compound 5, O-(N-acetyl-2-amino-2-deoxy-α-D-galactopyranosyl)-(1→3)-O-[α-D-glucopyranosyl-(1→2)]-O-α-D-galactopyranosyl-(1→1)-(2S,3S,4R)-2-amino-N-[(R)-2-hydroxytetracosanoyl]-16-methyl-1,3,4-heptadecanetriol]
Uptake of 3H-TdR (% of control), splenic lymphocytes ([1]; 10^0 μg/ml, 2880 min): 889 % of control
Uptake of 3H-TdR (% of control), splenic lymphocytes ([1]; 10^-1 μg/ml, 2880 min): 764 % of control
Uptake of 3H-TdR (% of control), splenic lymphocytes ([1]; 10^-2 μg/ml, 2880 min): 612 % of control
Uptake of 3H-TdR (% of control), splenic lymphocytes ([1]; 10^-3 μg/ml, 2880 min): 592 % of control
Maximum tumor growth inhibiting rate, TGIR (%) [2]: 86.8%
Uptake of 3H-TdR (% of control), bone marrow cells ([3]; 10^-1 μg/ml, 5760 min): 330 % of control
Uptake of 3H-TdR (% of control), bone marrow cells ([3]; 10^-2 μg/ml, 5760 min): 283 % of control
MLR activating rate (%) ([4]; 1 × 10^0 μg/ml, 2520 min): 189%
MLR activating rate (%) ([4]; 1 × 10^-1 μg/ml, 2520 min): 176%
Number of surviving mice ([5]; day 10): 10 mice
Number of surviving mice ([5]; day 15, 0.1 mg/kg): 8 mice
Number of surviving mice ([5]; day 20, 0.1 mg/kg): 7 mice
Number of surviving mice ([5]; day 25, 0.1 mg/kg): 7 mice
Number of surviving mice ([5]; day 30, 0.1 mg/kg): 7 mice
Number of surviving mice ([5]; day 35, 0.1 mg/kg): 7 mice
Number of surviving mice ([5]; day 40, 0.1 mg/kg): 7 mice
Survival days ave. ± s. d. [6]: 15.2 ± 1.1 days
T/C (%) [6]: 119%
